Source: publication PMC9963887, “Towards Radiolabeled EGFR-Specific Peptides: Alternatives to GE11” (Pharmaceuticals, 2023)
Read-outs that look alike come from different tables or passages of the source. Where a SMILES comes first, the peptide text is derived from it. Bridges are numbered along the chain shown (N, C = ends). [ ]: non-standard residue; d: D form. The star is where a group is joined. X1 = O=C(O)CN1CCN(CC(=O)O)CCN([C@H](CCC(=O)*)C(=O)O)CC1; PEG6 = NCCOCCOCCOCCOCCOCCOCCC(=O)O

Key:
[1] = logD(7.4) determination by partition between 1-octanol and phosphate buffer pH 7.4; assay type: physicochemical
Source text: For peptidic radiotracers, hydrophilicity is an important parameter as it can enable the initial assessment of the route by which the radioligand is metabolized and excreted. The commonly determined measure for the hydrophilicity/lipophilicity profile of a radiotracer is the determination of its logD(7.4) value and is investigated by partition experiments between an aqueous phosphate buffer phase at pH 7.4 and 1-octanol. For [^68Ga]Ga-1–[^68Ga]Ga-11, logD(7.4) values of −3.44 ± 0.08 ([^68Ga]Ga-1), −3.51 ± 0.22 ([^68Ga]Ga-2), −3.92 ± 0.09 ([^68Ga]Ga-3), −4.01 ± 0.13 ([^68Ga]Ga-4), −3.91 ± 0.06 ([^68Ga]Ga-5), −3.86 ± 0.11 ([^68Ga]Ga-6), −3.03 ± 0.20 ([^68Ga]Ga-7), −3.16 ± 0.11 ([^68Ga]Ga-8), −2.93 ± 0.08 ([^68Ga]Ga-9), −3.92 ± 0.09 ([^68Ga]Ga-10) and −3.98 ± 0.06 ([^68Ga]Ga-11) were obtained in these partition experiments. This high hydrophilicity of the tracers can be considered beneficial, as it should result in low, non-specific liver accumulation of the agents. This is advantageous with regard to the visualization of malignant liver lesions (especially hepatocellular carcinomas (HCCs) and liver metastases of colon carcinoma), which mostly overexpress the EGFR [46, 47] and, thus, represent an important area of application of an EGFR-specific peptidic radiotracer.
Determination of the logD(7.4) values of [^68Ga]Ga-1–[^68Ga]Ga-11. The aqueous phasepH7.4/1-octanol partition coefficient (logD(7.4)) of the developed radiotracers was determined by addition of a solution of the respective radiolabeled peptide (5 µL, 0.5–2 MBq) to a mixture of 1-octanol (800 µL) and phosphate buffer (0.05 M, pH 7.4, 795 µL). The mixtures were vigorously shaken for 5 min on a mechanical shaker and subsequently centrifuged at 13,000 rpm (12,100× g) for 2 min to achieve complete phase separation. 125 µL of each phase were taken and the amount of radioactivity in each phase was determined by γ-counting. Experiments were performed thrice, each in triplicate.

[2] = stability towards degradation by human serum peptidases; assay type: in vitro ADME; conditions: pooled human serum, 37 °C, incubation up to 90 min, intact tracer by radio-HPLC; read-out: Calculated Half-Life in Human Serum
Description: For the applicability of radiopeptides, their stability towards degradation by human serum peptidases is of importance as a low stability towards metabolization interferes with successful target visualization. Thus, the stability of the radiopeptides [^68Ga]Ga-1–[^68Ga]Ga-11 against degradation was determined by incubation with commercially available pooled human serum of healthy donors at 37 °C for 0, 15, 30, 45, 60, 75 and 90 min. At these time points, the fraction of the intact radiopeptides was again determined by analytical radio-HPLC, and the serum half-life of each radioligand was calculated.
Determination of the stability of [^68Ga]Ga-1–[^68Ga]Ga-11 towards degradation by human serum peptidases. A sample of the respective radiolabeled peptide (125 µL, 10–30 MBq, pH 7.4) was added to commercially available pooled human serum (500 µL) and warmed to 37 °C. At defined time-points (t = 0, […]), 75 µL of the mixture were added to 75 µL ice-cold ethanol, further cooled on ice for 5 min, and centrifuged at 13,000 rpm (12,100× g) for 90 s. The supernatant was collected, the activity of the supernatant and the precipitate measured, where after the supernatant was analyzed by analytical radio-HPLC and the amount of intact tracer was quantified. Experiments were performed thrice for each radioligand.

[3] = 1-octanol / phosphate buffer 0.05 M, read-out: logD(7.4)

Row | logD [1, 3] | half-life [2] | logD [1] | SMILES
1 | -3.44 ± 0.08 | 4.928 ± 0.045 h |  | CC[C@H](C)[C@H](NC(=O)[C@@H](NC(=O)[C@H](CC(N)=O)NC(=O)[C@H](CCC(N)=O)NC(=O)[C@@H]1CCCN1C(=O)[C@@H](NC(=O)[C@H](Cc1ccc(O)cc1)NC(=O)CNC(=O)[C@H](Cc1ccc(O)cc1)NC(=O)[C@H](Cc1c[nH]c2ccccc12)NC(=O)[C@H](Cc1c[nH]cn1)NC(=O)[C@H](Cc1ccc(O)cc1)NC(=O)CCOCCOCCOCCOCCOCCOCCNC(=O)CC[C@H](C(=O)O)N1CCN(CC(=O)O)CCN(CC(=O)O)CC1)[C@@H](C)O)C(C)C)C(=O)O [[^68Ga]Ga-1, metal not drawn]
2 |  |  | -3.51 ± 0.22 | CC(C)C[C@H](NC(=O)CCOCCOCCOCCOCCOCCOCCNC(=O)CC[C@H](C(=O)O)N1CCN(CC(=O)O)CCN(CC(=O)O)CC1)C(=O)N[C@@H](C)C(=O)N[C@@H](CCCNC(=N)N)C(=O)N[C@@H](CC(C)C)C(=O)N[C@@H](CC(C)C)C(=O)N[C@H](C(=O)O)[C@@H](C)O [[^68Ga]Ga-2, metal not drawn]
3 | -3.92 ± 0.09 | 135 ± 5.12 h |  | CC[C@H](C)[C@H](NC(=O)[C@@H]1CCCN1C(=O)[C@H](Cc1ccc(O)cc1)NC(=O)[C@H](CO)NC(=O)CCOCCOCCOCCOCCOCCOCCNC(=O)CC[C@H](C(=O)O)N1CCN(CC(=O)O)CCN(CC(=O)O)CC1)C(=O)N1CCC[C@H]1C(=O)N[C@@H](CC(=O)O)C(=O)N[C@H](C(=O)O)[C@@H](C)O [[^68Ga]Ga-3, metal not drawn] ({X1-PEG6}-SYPIPDT-OH; C-terminus assumed)
4 | -4.01 ± 0.13 | 40.5 ± 0.645 h |  | C[C@@H](O)[C@H](NC(=O)[C@H](CCC(N)=O)NC(=O)[C@H](CC(=O)O)NC(=O)[C@H](CO)NC(=O)[C@@H](NC(=O)[C@H](Cc1c[nH]cn1)NC(=O)CCOCCOCCOCCOCCOCCOCCNC(=O)CC[C@H](C(=O)O)N1CCN(CC(=O)O)CCN(CC(=O)O)CC1)[C@@H](C)O)C(=O)N[C@@H](CC(N)=O)C(=O)O [[^68Ga]Ga-4, metal not drawn] ({X1-PEG6}-HTSDQTN-OH)
5 | -3.91 ± 0.06 |  |  | N=C(N)NCCC[C@H](NC(=O)[C@@H](N)CCC(N)=O)C(=O)N[C@@H](Cc1c[nH]cn1)C(=O)N[C@@H](CCCCN)C(=O)N1CCC[C@H]1C(=O)N[C@@H](CCCNC(=N)N)C(=O)N[C@@H](CCC(=O)O)C(=O)NCCOCCOCCOCCOCCOCCOCCC(=O)N[C@@H](CCCCNC(=O)CC[C@H](C(=O)O)N1CCN(CC(=O)O)CCN(CC(=O)O)CC1)C(N)=O [[^68Ga]Ga-5, metal not drawn] (H-QRHKPRE[PEG6]K(X1)-NH2)
6 | -3.86 ± 0.11 | 17.7 ± 0.717 h |  | CC(C)C[C@H](NC(=O)[C@H](Cc1c[nH]c2ccccc12)NC(=O)[C@H](Cc1ccccc1)NC(=O)[C@H](CCC(N)=O)NC(=O)[C@H](C)NC(=O)[C@H](CO)NC(=O)[C@H](CC(=O)O)NC(=O)[C@@H]1CCCN1C(=O)[C@H](CCCNC(=N)N)NC(=O)[C@@H](N)CC(N)=O)C(=O)N[C@@H](Cc1c[nH]cn1)C(=O)N[C@@H](Cc1c[nH]cn1)C(=O)NCCOCCOCCOCCOCCOCCOCCC(=O)N[C@@H](CCCCNC(=O)CC[C@H](C(=O)O)N1CCN(CC(=O)O)CCN(CC(=O)O)CC1)C(N)=O [[^68Ga]Ga-6, metal not drawn] (H-NRPDSAQFWLHH[PEG6]K(X1)-NH2)
7 | -3.03 ± 0.2 | 1.11 ± 0.05 h |  | CSCC[C@H](NC(=O)[C@@H]1CCCN1C(=O)[C@@H](N)Cc1ccccc1)C(=O)N[C@@H](Cc1ccccc1)C(=O)N[C@@H](CC(N)=O)C(=O)N[C@@H](Cc1c[nH]cn1)C(=O)N[C@@H](Cc1c[nH]c2ccccc12)C(=O)N[C@@H](CCC(=O)O)C(=O)N[C@@H](CCC(N)=O)C(=O)N[C@@H](Cc1c[nH]c2ccccc12)C(=O)N1CCC[C@H]1C(=O)N1CCC[C@H]1C(=O)NCCOCCOCCOCCOCCOCCOCCC(=O)N[C@@H](CCCCNC(=O)CC[C@H](C(=O)O)N1CCN(CC(=O)O)CCN(CC(=O)O)CC1)C(N)=O [[^68Ga]Ga-7, metal not drawn] (H-FPMFNHWEQWPP[PEG6]K(X1)-NH2)
8 |  |  | -3.16 ± 0.11 | CSCC[C@H](NC(=O)[C@@H]1CSSC[C@H](NC(=O)[C@@H](N)CCC(=O)O)C(=O)N2CCC[C@H]2C(=O)N[C@@H](CC(C)C)C(=O)N[C@@H](CO)C(=O)N[C@@H](Cc2c[nH]cn2)C(=O)N[C@@H](CC(=O)O)C(=O)NCC(=O)N[C@@H](Cc2ccc(O)cc2)C(=O)N[C@@H](CS)C(=O)N[C@@H](CC(C)C)C(=O)N[C@@H](Cc2c[nH]cn2)C(=O)N[C@@H](CC(=O)O)C(=O)NCC(=O)N[C@@H](C(C)C)C(=O)N1)C(=O)NCCOCCOCCOCCOCCOCCOCCC(=O)N[C@@H](CCCCNC(=O)CC[C@H](C(=O)O)N1CCN(CC(=O)O)CCN(CC(=O)O)CC1)C(N)=O [[^68Ga]Ga-8, metal not drawn] (H-ECPLSHDGYCLHDGVCM[PEG6]K(X1)-NH2; disulfide 2-16)
9 |  |  | -2.93 ± 0.08 | CC[C@H](C)[C@@H]1NC(=O)[C@H](Cc2ccc(O)cc2)NC(=O)[C@H](CCSC)NC(=O)[C@H](CS)NC(=O)[C@H](C(C)C)NC(=O)CNC(=O)[C@H](CC(=O)O)NC(=O)[C@H](Cc2c[nH]cn2)NC(=O)[C@H](CC(C)C)NC(=O)[C@@H](NC(=O)[C@@H](N)Cc2ccc(O)cc2)CSSC[C@@H](C(=O)N[C@@H](CC(N)=O)C(=O)NCCOCCOCCOCCOCCOCCOCCC(=O)N[C@@H](CCCCNC(=O)CC[C@H](C(=O)O)N2CCN(CC(=O)O)CCN(CC(=O)O)CC2)C(N)=O)NC(=O)[C@H](C)NC(=O)[C@H](Cc2ccc(O)cc2)NC(=O)[C@H](CCCCN)NC(=O)[C@H](CC(=O)O)NC(=O)[C@H](CC(C)C)NC(=O)[C@H](C)NC(=O)[C@H](CCC(=O)O)NC1=O [[^68Ga]Ga-9, metal not drawn] (H-YCLHDGVCMYIEALDKYACN[PEG6]K(X1)-NH2; disulfide 2-19; N-terminus assumed)
10 | -3.92 ± 0.09 | 11.7 ± 0.703 h |  | CC[C@H](C)[C@@H]1NC(=O)[C@H](Cc2ccc(O)cc2)NC(=O)CNC(=O)[C@H](C(C)C)NC(=O)[C@H](C(C)C)NC(=O)[C@@H](NC(=O)[C@@H](N)CC(N)=O)CSSC[C@@H](C(=O)N[C@@H](CCC(N)=O)C(=O)NCCOCCOCCOCCOCCOCCOCCC(=O)N[C@@H](CCCCNC(=O)CC[C@H](C(=O)O)N2CCN(CC(=O)O)CCN(CC(=O)O)CC2)C(N)=O)NC(=O)[C@H](CCCNC(=N)N)NC(=O)[C@H](CCC(=O)O)NC(=O)CNC1=O [[^68Ga]Ga-10, metal not drawn] (H-NCVVGYIGERCQ[PEG6]K(X1)-NH2; disulfide 2-11)
11 | -3.98 ± 0.06 | 9.37 ± 0.115 h |  | C[C@H](NC(=O)[C@H](CCC(=O)O)NC(=O)[C@H](Cc1ccc(O)cc1)NC(=O)[C@H](CC(=O)O)NC(=O)[C@H](Cc1ccc(O)cc1)NC(=O)[C@H](Cc1ccccc1)NC(=O)CNC(=O)[C@@H]1CCCN1C(=O)CNC(=O)[C@H](CC(N)=O)NC(=O)[C@H](CCC(=O)O)NC(=O)CNC(=O)[C@H](CO)NC(=O)[C@@H](N)Cc1c[nH]c2ccccc12)C(=O)NCCOCCOCCOCCOCCOCCOCCC(=O)N[C@@H](CCCCNC(=O)CC[C@H](C(=O)O)N1CCN(CC(=O)O)CCN(CC(=O)O)CC1)C(N)=O [[^68Ga]Ga-11, metal not drawn] (H-WSGENGPGFYDYEA[PEG6]K(X1)-NH2)
